Data published in US20220073557A1, “FLUORINATED BILE ACIDS” (NZP UK LIMITED, priority 2018, published 2022).

Assays:
[1] = test system: sporadic PD patient fibroblasts; assay: Cellular ATP levels (ATPlite, normalised to CyQUANT DNA content) in sporadic PD patient fibroblasts; format: cell-based; conditions: Homo sapiens, Fibroblast, 24 h; for activity at 0.3 µM: read-out: Cellular ATP levels Top (% of vehicle treated); for activity at 60 pM: read-out: Cellular ATP levels Bottom (% of vehicle treated)
Experimental: (§1) Fibroblasts were cultured in DMEM (Invitrogen) and routinely subcultured every 3-5 days using trypsin to dissociate them.
The ATP protocol is generally as described in Mortiboys et al, “Mitochondrial function and morphology are impaired in parkin-mutant fibroblasts”, Ann Neurol. 2008 November; 64(5):555-65. Briefly, fibroblasts were cultured as and plated into white 384 well plates with 5000 cells per well in 50 μl of media volume. The plates are left overnight in an incubator to allow the fibroblasts to adhere to the plate surface. The following morning the Glucose based medium is replaced with 25 μl of Galactose based medium. The compounds are added to the plates using a ECHO 550 liquid handling system. The wells were dosed to provide an 8-point concentration range of 0.06 nM-300 nM of compound. After dosing the wells are topped up with a further 25 μl of Galactose based medium and then left in an incubator for 24 hours. Following this incubation the medium is removed from the plate and the wells are washed twice with sterile PBS. The wells are filled with 25 μl of Sterile PBS followed by 12.5 μl of Lysis solution from the ATPlite™ Luminescence ATP detection assay system (Perkin Elmer), including 16 cell free wells to use as blank controls. The plate is then placed on a rotary shaker for 5 mins at 700 rpm. Following the shaking 12.5 μl of ATP substrate solution (Perkin Elmer) is added to each well and a further 5 min of shaking. The plate is then placed in darkness for 10 minutes prior to reading. Using a PHERAStar® plate reader, luminescence intensity is recorded. Following the ATP assay the plates are immediately assayed for DNA content in a CyQUANT® assay.
Immediately following The ATP assay DNA content is assessed with the CyQUANT® NF Cell Proliferation Assay Kit (ThermoFisher). CyQUANT® buffer is prepared immediately before the assay and is comprised of 1 ul CyQUANT® dye per ml×1 HBSS solution. 12.5 ul of CyQUANT® buffer is added to each well. Plate left in incubator for 1 hour then read on a PHERAStar® Plate reader with excitation at 497 nm and emission at 520 nm. ATP Quantification for each well is determined using the following formula: […]
(§2) After the assays had been repeated in triplicate per line and compound the data was then inputted into Graph pad Prism 7 software suite where a dose response curve is generated using the default “[Agonist] vs response (three parameters)” equation.
(§3) From this EC50 values, lowest response and maximal response were taken and used to calculate the Geometric mean between the 5 different lines assessed.
Cellular ATP levels were measured in fibroblasts from 6 (Table 3) or 3 (Table 4) patients with sporadic Parkinson's disease when treated with Compounds of the invention or Comparator compounds. The results are shown in Tables 3 and 4, where “Bottom”=max response with lowest dose of compound (0.06 nM) and “top”=max response with highest dose of compound (300 nM).

[2] = test system: sporadic PD patient fibroblasts; assay: Mitochondrial membrane potential (MMP, TMRM) in sporadic PD patient fibroblasts; format: cell-based; conditions: Homo sapiens, Fibroblast, 24 h; for activity at 0.3 µM: read-out: MMP Top (% of vehicle treated); for activity at 60 pM: read-out: MMP Bottom (% of vehicle treated)
Experimental: as §1
Fibroblasts were cultured and plated into a Griener black 384 pClear® plate at 10000 cells per well in 50 μl of media volume. The plates are left overnight in an incubator to allow the fibroblasts to adhere to the plate surface. The following morning the Glucose based medium is replaced with 25 μl of Galactose based media. The plates were then dosed with the compounds using an ECHO® 550 liquid handling system. The wells were dosed to provide an 8-point concentration range of 0.06 nM-300 nM of compound. After dosing the wells are topped up with a further 25 μl of Galactose based medium and then left in an incubator for 24 hours. After 24 hours, the medium is removed from the wells and replaced with 25 ul phenol free Minimal essential medium with 100 nM TMRM (Sigma) and 10 μM Hoechst Stain (Sigma). The plate is returned to the incubator for another hour after which the stain medium is removed and replaced with 25 ul Phenol free MEM. The plate is then imaged using an IN Cell high content microscope (GE Healthcare) with 10 fields of view per well in 2 channels, Cy3 excitation 542 nm, emission 604-64 nm; and the DAPI excitation 350 nm, emission 450-55 nm at 37° C. with CO2. After imaging the plate is disposed of and the images are Data mined using the INCell developer Toolkit (GE Healthcare).
as §2, §3
The mitochondrial membrane potential was measured in fibroblasts from 6 (Table 1) or 3 (Table 2) patients with sporadic Parkinson's disease when treated with Compounds of the invention or Comparator compounds. The results are shown in Tables 1 and 2, where “Bottom”=max response with lowest dose of compound (0.06 nM) and “top”=max response with highest dose of compound (300 nM).

[3] = 6 sporadic PD patient fibroblasts, read-out: Cellular ATP levels EC50
[4] = max response with highest dose (300 nM), 6 sporadic PD patient fibroblasts
[5] = max response with lowest dose (0.06 nM), 6 sporadic PD patient fibroblasts
[6] = 6 sporadic PD patient fibroblasts, read-out: MMP EC50
[7] = read-out: Cellular ATP levels EC50 (nM)
[8] = 3 sporadic PD patient fibroblasts, read-out: Cellular ATP levels EC50
[9] = max response with highest dose (300 nM), 3 sporadic PD patient fibroblasts
[10] = max response with lowest dose (0.06 nM), 3 sporadic PD patient fibroblasts
[11] = 3 sporadic PD patient fibroblasts, read-out: MMP EC50

SMILES: C[C@H](CCC(=O)O)[C@H]1CC[C@H]2[C@@H]3C(=O)C[C@@H]4CC(=O)C(F)(F)C[C@]4(C)[C@H]3CC[C@]12C [Compound E, 2,2-difluoro-3,7-dioxo-5β-cholanic acid, reference compound]
- EC50 [1, 3]: 18.8 nM
- activity at 0.3 µM [1, 4]: 136%
- activity at 60 pM [1, 5]: 81.6%
- EC50 [2, 6]: 23.3 nM
- activity at 0.3 µM [2, 4]: 112%
- activity at 60 pM [2, 5]: 105%

SMILES: C[C@H](CCC(=O)O)[C@H]1CC[C@H]2[C@@H]3C(=O)C[C@@H]4CC(=O)C(F)=C[C@]4(C)[C@H]3CC[C@]12C [Compound G, 2-fluoro-3,7-dioxo-5β-chol-1-enic acid, reference compound]
- EC50 [1, 3]: 58.4 nM
- activity at 0.3 µM [1, 4]: 92.7%
- activity at 60 pM [1, 5]: 83.3%
- EC50 [2, 6]: 282 nM
- activity at 0.3 µM [2, 4]: 123%
- activity at 60 pM [2, 5]: 103%

SMILES: C[C@H](CCC(=O)N1CCC[C@H](C(=O)O)C1)[C@H]1CC[C@H]2[C@@H]3[C@@H](O)C[C@@H]4C[C@@H](O)C(F)(F)C[C@]4(C)[C@H]3CC[C@]12C [Compound 14, Sodium 1-(2,2-difluoro-3β,7β-dihydroxy-5β-cholan-24-oyl)-piperidine-3-carboxylate]
- activity at 60 pM [1]: 107%
- EC50 [1, 7]: 1.3 nM
- activity at 0.3 µM [1]: 127%
- activity at 60 pM [2]: 94.3%
- EC50 ([2]; read-out: MMP EC50 (nM)): 18.9 nM
- activity at 0.3 µM [2]: 167%

SMILES: C[C@H](CCC(=O)O)[C@H]1CC[C@H]2[C@@H]3[C@H](O)C[C@@H]4C[C@H](O)C(F)=C[C@]4(C)[C@H]3CC[C@]12C [Compound H, 2-fluoro-3α,7α-dihydroxy-5β-chol-1-enic acid, reference compound]
- EC50 [1, 3]: 0.125 nM
- activity at 0.3 µM [1, 4]: 121%
- activity at 60 pM [1, 5]: 87.6%
- EC50 [2, 6]: 4.58 nM
- activity at 0.3 µM [2, 4]: 109%
- activity at 60 pM [2, 5]: 99.8%

SMILES: C[C@H](CCC(=O)O)[C@H]1CC[C@H]2[C@@H]3[C@@H](O)C[C@@H]4C[C@@H](O)C(F)=C[C@]4(C)[C@H]3CC[C@]12C [Compound F, 2-fluoro-3β,7β-dihydroxy-5β-chol-1-enic acid, reference compound]
- EC50 [1, 3]: 1.91 nM
- activity at 0.3 µM [1, 4]: 112%
- activity at 60 pM [1, 5]: 99.9%
- EC50 [2, 6]: 0.674 nM
- activity at 0.3 µM [2, 4]: 108%
- activity at 60 pM [2, 5]: 110%

SMILES: C[C@H](CCC(=O)NCCS(C)(=O)=O)[C@H]1CC[C@H]2[C@@H]3[C@@H](O)C[C@@H]4C[C@@H](O)C(F)(F)C[C@]4(C)[C@H]3CC[C@]12C [Compound 27, N-(2,2-difluoro-3β,7β-dihydroxy-5β-cholan-24-oyl) 2-aminoethyl methyl sulfone]
- EC50 [1, 8]: 16.6 nM
- activity at 0.3 µM [1, 9]: 114%
- activity at 60 pM [1, 10]: 101%
- EC50 [2, 11]: 171 nM
- activity at 0.3 µM [2, 9]: 159%
- activity at 60 pM [2, 10]: 103%

SMILES: C[C@H](CCC(=O)NC1CCCS(=O)(=O)C1)[C@H]1CC[C@H]2[C@@H]3[C@@H](O)C[C@@H]4C[C@@H](O)C(F)(F)C[C@]4(C)[C@H]3CC[C@]12C (stereo partly drawn) [Compound 31, N-(2,2-difluoro-3β,7β-dihydroxy-5β-cholan-24-oyl) 1,1-dioxidotetrahydro-2H-thiopyran-3-ylamine]
- EC50 [1, 8]: 13.3 nM
- activity at 0.3 µM [1, 9]: 133%
- activity at 60 pM [1, 10]: 108%
- EC50 [2, 11]: 5.5 nM
- activity at 0.3 µM [2, 9]: 151%
- activity at 60 pM [2, 10]: 99.6%

SMILES: C[C@H](CCC(=O)N1CCS(=O)(=O)CC1)[C@H]1CCC2C3C(CC[C@@]21C)[C@@]1(C)CC(F)(F)[C@H](O)C[C@H]1C[C@@H]3O (stereo partly drawn) [Compound 30, N-(2,2-difluoro-3β,7β-dihydroxy-5β-cholan-24-oyl)-thiomorpholine-dioxide]
- EC50 [1, 8]: 4.2 nM
- activity at 0.3 µM [1, 9]: 115%
- activity at 60 pM [1, 10]: 96.7%
- EC50 [2, 11]: 21 nM
- activity at 0.3 µM [2, 9]: 156%
- activity at 60 pM [2, 10]: 98.4%

SMILES: C[C@H](CCC(=O)O)[C@H]1CC[C@H]2[C@@H]3[C@@H](O)C[C@@H]4C[C@H](O)C(F)(F)C[C@]4(C)[C@H]3CC[C@]12C [Compound 9, 2,2-difluoro-3α,7β-dihydroxy-5β-cholanic acid]
- activity at 60 pM [1]: 99%
- EC50 [1, 7]: 21.3 nM
- activity at 0.3 µM [1]: 103%
- activity at 60 pM [2]: 110%
- EC50 ([2]; read-out: MMP EC50 (nM)): 2.19 nM
- activity at 0.3 µM [2]: 112%

SMILES: C[C@H](CCC(=O)NCC(=O)O)[C@H]1CCC2C3C(CC[C@@]21C)[C@@]1(C)CC(F)(F)[C@H](O)C[C@H]1C[C@@H]3O (stereo partly drawn) [Compound 17, Sodium N-(2,2-difluoro-3β,7β-dihydroxy-5β-cholan-24-amide)-methylcarboxylic acid]
- activity at 60 pM [1]: 101%
- EC50 [1, 7]: 17.2 nM
- activity at 0.3 µM [1]: 132%
- activity at 60 pM [2]: 88.9%
- EC50 ([2]; read-out: MMP EC50 (nM)): 128 nM
- activity at 0.3 µM [2]: 152%

SMILES: C[C@H](CCC(=O)N(C)CCS(=O)(=O)O)[C@H]1CCC2C3C(CC[C@@]21C)[C@@]1(C)CC(F)(F)[C@H](O)C[C@H]1C[C@@H]3O (stereo partly drawn) [Compound 19, Sodium N-(methyl)-N-(2,2-difluoro-3β,7β-dihydroxy-5β-cholan-24-amide) ethylsulfonic acid]
- activity at 60 pM [1]: 98.8%
- EC50 [1, 7]: 8.9 nM
- activity at 0.3 µM [1]: 122%
- activity at 60 pM [2]: 95.9%
- EC50 ([2]; read-out: MMP EC50 (nM)): 104 nM
- activity at 0.3 µM [2]: 143%

SMILES: C[C@H](CCC(=O)NCCCS(=O)(=O)O)[C@H]1CC[C@H]2[C@@H]3[C@@H](O)C[C@@H]4C[C@@H](O)C(F)(F)C[C@]4(C)[C@H]3CC[C@]12C [Compound 20, Sodium 3-(2,2-difluoro-3β,7β-dihydroxy-5β-cholan-24-oyl) amino-propanesulfonate]
- activity at 60 pM [1]: 102%
- EC50 [1, 7]: 34.7 nM
- activity at 0.3 µM [1]: 122%
- activity at 60 pM [2]: 99.8%
- EC50 ([2]; read-out: MMP EC50 (nM)): 17.7 nM
- activity at 0.3 µM [2]: 147%
